Test results from US10196386B2, “Compounds having muscarinic receptor antagonist and beta2 adrenergic receptor agonist activity” (priority 2016, dated 2019).

Legend:
[1] = target: T1, Human M3 receptor (Homo sapiens, UniProt P20309); experiment: biochemical; type: binding; conditions: read-out: M3 Range
T1 construct: purchased Perkin Elmer

[2] = target: T2, Human β2 adrenoceptor (Homo sapiens, UniProt P07550); experiment: β2 adrenoceptor radioligand binding assay
T2 construct: purchased Perkin Elmer
T2 sequence (P07550 whole entry): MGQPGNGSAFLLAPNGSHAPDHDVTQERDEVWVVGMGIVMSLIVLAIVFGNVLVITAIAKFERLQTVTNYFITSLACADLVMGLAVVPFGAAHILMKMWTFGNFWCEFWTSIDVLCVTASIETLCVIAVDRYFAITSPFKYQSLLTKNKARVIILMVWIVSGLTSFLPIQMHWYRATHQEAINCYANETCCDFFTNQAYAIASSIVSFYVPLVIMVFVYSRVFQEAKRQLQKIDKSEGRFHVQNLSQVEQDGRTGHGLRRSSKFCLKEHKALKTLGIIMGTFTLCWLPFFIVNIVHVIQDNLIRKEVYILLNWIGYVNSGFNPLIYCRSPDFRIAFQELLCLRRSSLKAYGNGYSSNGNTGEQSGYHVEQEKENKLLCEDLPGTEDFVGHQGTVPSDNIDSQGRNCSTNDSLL
Summary of the method: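 Human β2 receptor membranes incubated 1 h at room temperature with 0.3 nM [125I]cyanopindolol and compound in pH 7.4 HEPES buffer (0.5% DMSO); 2 μM s-propranolol defined non-specific binding. Bound label counted after filtration; IC50 from competition curves, converted to Ki via Cheng–Prusoff.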

T1 sequence (P20309 whole entry): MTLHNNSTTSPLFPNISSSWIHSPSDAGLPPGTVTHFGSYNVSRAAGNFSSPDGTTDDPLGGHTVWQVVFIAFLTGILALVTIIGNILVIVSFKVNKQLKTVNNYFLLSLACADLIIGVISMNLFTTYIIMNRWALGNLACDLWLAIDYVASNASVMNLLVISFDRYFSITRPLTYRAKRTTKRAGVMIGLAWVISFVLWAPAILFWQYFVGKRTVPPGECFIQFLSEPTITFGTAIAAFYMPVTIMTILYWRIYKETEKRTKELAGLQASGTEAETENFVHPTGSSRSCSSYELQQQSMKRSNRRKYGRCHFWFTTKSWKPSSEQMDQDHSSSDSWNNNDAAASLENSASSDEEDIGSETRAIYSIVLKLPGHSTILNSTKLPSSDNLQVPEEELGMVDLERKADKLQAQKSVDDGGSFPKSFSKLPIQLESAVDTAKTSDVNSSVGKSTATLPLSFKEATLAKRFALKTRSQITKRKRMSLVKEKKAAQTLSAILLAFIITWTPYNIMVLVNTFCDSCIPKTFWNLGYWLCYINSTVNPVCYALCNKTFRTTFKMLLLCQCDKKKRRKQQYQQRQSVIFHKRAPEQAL

In the case of O=C(c1ccc(CCNC[C@H](O)c2ccc(O)c3[nH]c(=O)ccc23)cc1)N1CC=C(c2cccc([C@](O)(C(=O)OCC3CCN(Cc4ccccc4)CC3)c3ccccc3)c2)C1 [Compound 3F, (1-Benzylpiperidin-4-yl)methyl (S)-2-hydroxy-2-(3-(1-(4-(2-(((R)-2-hydroxy-2-(8-hydroxy-2-oxo-1,2-dihydroquinolin-5-yl)ethyl)amino)ethyl)benzoyl)-2,5-dihydro-1H-pyrrol-3-yl)phenyl)-2-phenylacetate], the IC50 [1] is reported as 0.3 to 3 nM and the IC50 [2] is reported as < 0.3 nM.

In the case of O=C(c1ccc(CNC[C@H](O)c2ccc(O)c3[nH]c(=O)ccc23)cc1)N1CC=C(c2cccc([C@](O)(C(=O)OCC3CCN(Cc4ccccc4)CC3)c3ccccc3)c2)C1 [Compound 3G, (1-Benzylpiperidin-4-yl)methyl (S)-2-hydroxy-2-(3-(1-(4-((((R)-2-hydroxy-2-(8-hydroxy-2-oxo-1,2-dihydroquinolin-5-yl)ethyl)amino)methyl)benzoyl)-2,5-dihydro-1H-pyrrol-3-yl)phenyl)-2-phenylacetate], the IC50 [1] is reported as 0.3 to 3 nM and the IC50 [2] is reported as < 0.3 nM.

For COc1cc(C(=O)N2CCC=C(c3cccc([C@](O)(C(=O)OCC4CCN(Cc5ccccc5)CC4)c4ccccc4)c3)C2)ccc1CNC[C@H](O)c1ccc(O)c2[nH]c(=O)ccc12 [Compound 3H, (1-Benzylpiperidin-4-yl)methyl (S)-2-hydroxy-2-(3-(1-(4-((((R)-2-hydroxy-2-(8-hydroxy-2-oxo-1,2-dihydroquinolin-5-yl)ethyl)amino)methyl)-3-methoxybenzoyl)-1,2,5,6-tetrahydropyridin-3-yl)phenyl)-2-phenylacetate], the IC50 [1] was 0.3 to 3 nM and the IC50 [2] was < 0.3 nM.

O=C(c1ccc(CNC[C@H](O)c2ccc(O)c3[nH]c(=O)ccc23)cc1)N1CCC=C(c2cccc([C@](O)(C(=O)OCC3CCN(Cc4ccccc4)CC3)c3ccccc3)c2)C1 [Compound 3I, (1-Benzylpiperidin-4-yl)methyl (S)-2-hydroxy-2-(3-(1-(4-((((R)-2-hydroxy-2-(8-hydroxy-2-oxo-1,2-dihydroquinolin-5-yl)ethyl)amino)methyl)benzoyl)-1,2,5,6-tetrahydropyridin-3-yl)phenyl)-2-phenylacetate] showed an IC50 [1] of 0.3 to 3 nM and an IC50 [2] of 0.3 to 3 nM.

For COc1cc(C(=O)N2CC=C(c3cccc([C@](O)(C(=O)OCC4CCN(Cc5ccccc5)CC4)c4ccccc4)c3)C2)ccc1CNC[C@H](O)c1ccc(O)c2[nH]c(=O)ccc12 [Compound 3J, (1-Benzylpiperidin-4-yl)methyl (S)-2-hydroxy-2-(3-(1-(4-((((R)-2-hydroxy-2-(8-hydroxy-2-oxo-1,2-dihydroquinolin-5-yl)ethyl)amino)methyl)-3-methoxybenzoyl)-2,5-dihydro-1H-pyrrol-3-yl)phenyl)-2-phenylacetate], the IC50 [1] was < 0.3 nM and the IC50 [2] was < 0.3 nM.

Work on O=C(NCc1ncc(-c2cccc([C@](O)(C(=O)OCC3CCN(Cc4ccccc4)CC3)c3ccccc3)c2)cn1)c1ccc(CNC[C@H](O)c2ccc(O)c3[nH]c(=O)ccc23)cc1 [Compound 4, (1-Benzylpiperidin-4-yl)methyl (S)-2-hydroxy-2-(3-(2-((4-((((R)-2-hydroxy-2-(8-hydroxy-2-oxo-1,2-dihydroquinolin-5-yl)ethyl)amino)methyl)benzamido)-methyl)pyrimidin-5-yl)phenyl)-2-phenylacetate] yielded an IC50 [1] of 0.3 to 3 nM and an IC50 [2] of 0.3 to 3 nM.

For COc1cc(C(=O)NCc2ccnc(-c3cccc([C@](O)(C(=O)OCC4CCN(Cc5ccccc5)CC4)c4ccccc4)c3)n2)ccc1CNC[C@H](O)c1ccc(O)c2[nH]c(=O)ccc12 [Compound 4A, (1-Benzylpiperidin-4-yl)methyl (S)-2-hydroxy-2-(3-(4-((4-((((R)-2-hydroxy-2-(8-hydroxy-2-oxo-1,2-dihydroquinolin-5-yl)ethyl)amino)methyl)-3-methoxybenzamido)methyl)pyrimidin-2-yl)phenyl)-2-phenylacetate], the IC50 [1] was 0.3 to 3 nM and the IC50 [2] was < 0.3 nM.

In the case of O=C(NCc1cnc(-c2cccc([C@](O)(C(=O)OCC3CCN(Cc4ccccc4)CC3)c3ccccc3)c2)cn1)c1ccc(CNC[C@H](O)c2ccc(O)c3[nH]c(=O)ccc23)cc1 [Compound 4B, (1-Benzylpiperidin-4-yl)methyl (S)-2-hydroxy-2-(3-(5-((4-((((R)-2-hydroxy-2-(8-hydroxy-2-oxo-1,2-dihydroquinolin-5-yl)ethyl)amino)methyl)-benzamido)methyl)pyrazin-2-yl)phenyl)-2-phenylacetate], the IC50 [1] is reported as < 0.3 nM and the IC50 [2] is reported as 0.3 to 3 nM.

With COc1cc(C(=O)NCc2ccc(-c3cccc([C@](O)(C(=O)OCC4CCN(Cc5ccccc5)CC4)c4ccccc4)c3)nn2)ccc1CNC[C@H](O)c1ccc(O)c2[nH]c(=O)ccc12 [Compound 4C, (1-Benzylpiperidin-4-yl)methyl (S)-2-hydroxy-2-(3-(6-((4-((((R)-2-hydroxy-2-(8-hydroxy-2-oxo-1,2-dihydroquinolin-5-yl)ethyl)amino)methyl)-3-methoxybenzamido)methyl)pyridazin-3-yl)phenyl)-2-phenylacetate] the IC50 [1] was < 0.3 nM and the IC50 [2] was < 0.3 nM.

O=C(NCc1ccnc(-c2cccc([C@](O)(C(=O)OCC3CCN(Cc4ccccc4)CC3)c3ccccc3)c2)n1)c1ccc(CNC[C@H](O)c2ccc(O)c3[nH]c(=O)ccc23)cc1 [Compound 4D, (1-Benzylpiperidin-4-yl)methyl (S)-2-hydroxy-2-(3-(4-((4-((((R)-2-hydroxy-2-(8-hydroxy-2-oxo-1,2-dihydroquinolin-5-yl)ethyl)amino)methyl)-benzamido)methyl)pyrimidin-2-yl)phenyl)-2-phenylacetate] was tested, and the IC50 [1] was 0.3 to 3 nM and the IC50 [2] was 0.3 to 3 nM.

COc1cc(C(=O)NCc2ncc(-c3cccc([C@](O)(C(=O)OCC4CCN(Cc5ccccc5)CC4)c4ccccc4)c3)cn2)ccc1CNC[C@H](O)c1ccc(O)c2[nH]c(=O)ccc12 [Compound 4E, (1-Benzylpiperidin-4-yl)methyl (S)-2-hydroxy-2-(3-(2-((4-((((R)-2-hydroxy-2-(8-hydroxy-2-oxo-1,2-dihydroquinolin-5-yl)ethyl)amino)methyl)-3-methoxybenzamido)methyl)pyrimidin-5-yl)phenyl)-2-phenylacetate] showed an IC50 [1] of 0.3 to 3 nM and an IC50 [2] of 0.3 to 3 nM.

Work on COc1cc(C(=O)NCc2nn(C)cc2-c2cccc([C@](O)(C(=O)OCC3CCN(Cc4ccccc4)CC3)c3ccccc3)c2)ccc1CNC[C@H](O)c1ccc(O)c2[nH]c(=O)ccc12 [Compound 4F, (1-Benzylpiperidin-4-yl)methyl (S)-2-hydroxy-2-(3-(3-((4-((((R)-2-hydroxy-2-(8-hydroxy-2-oxo-1,2-dihydroquinolin-5-yl)ethyl)amino)methyl)-3-methoxybenzamido)methyl)-1-methyl-1H-pyrazol-4-yl)phenyl)-2-phenylacetate] yielded an IC50 [1] of 0.3 to 3 nM and an IC50 [2] of 0.3 to 3 nM.

COc1cc(C(=O)NCc2cncc(-c3cccc([C@](O)(C(=O)OCC4CCN(Cc5ccccc5)CC4)c4ccccc4)c3)n2)ccc1CNC[C@H](O)c1ccc(O)c2[nH]c(=O)ccc12 [Compound 4G, (1-Benzylpiperidin-4-yl)methyl (S)-2-hydroxy-2-(3-(6-((4-((((R)-2-hydroxy-2-(8-hydroxy-2-oxo-1,2-dihydroquinolin-5-yl)ethyl)amino)methyl)-3-methoxybenzamido)methyl)pyrazin-2-yl)phenyl)-2-phenylacetate] was tested, and the IC50 [1] was 0.3 to 3 nM and the IC50 [2] was < 0.3 nM.

In the case of COc1cc(C(=O)NCc2cnc(-c3cccc([C@](O)(C(=O)OCC4CCN(Cc5ccccc5)CC4)c4ccccc4)c3)cn2)ccc1CNC[C@H](O)c1ccc(O)c2[nH]c(=O)ccc12 [Compound 4H, (1-Benzylpiperidin-4-yl)methyl (S)-2-hydroxy-2-(3-(5-((4-((((R)-2-hydroxy-2-(8-hydroxy-2-oxo-1,2-dihydroquinolin-5-yl)ethyl)amino)methyl)-3-methoxybenzamido)methyl)pyrazin-2-yl)phenyl)-2-phenylacetate], the IC50 [1] is reported as 0.3 to 3 nM and the IC50 [2] is reported as < 0.3 nM.

In the case of O=C(NCc1cc(-c2cccc([C@](O)(C(=O)OCC3CCN(Cc4ccccc4)CC3)c3ccccc3)c2)cs1)c1ccc(CNC[C@H](O)c2ccc(O)c3[nH]c(=O)ccc23)cc1 [Compound 5, (1-Benzylpiperidin-4-yl)methyl (S)-2-hydroxy-2-(3-(5-((4-((((R)-2-hydroxy-2-(8-hydroxy-2-oxo-1,2-dihydroquinolin-5-yl)ethyl)amino)methyl)benzamido)methyl)-thiophen-3-yl)phenyl)-2-phenylacetate], the IC50 [1] is reported as 0.3 to 3 nM and the IC50 [2] is reported as < 0.3 nM.

For O=C(NCc1csc(-c2cccc([C@](O)(C(=O)OCC3CCN(Cc4ccccc4)CC3)c3ccccc3)c2)c1)c1ccc(CNC[C@H](O)c2ccc(O)c3[nH]c(=O)ccc23)cc1 [Compound 5A, (1-Benzylpiperidin-4-yl)methyl (S)-2-hydroxy-2-(3-(4-((4-((((R)-2-hydroxy-2-(8-hydroxy-2-oxo-1,2-dihydroquinolin-5-yl)ethyl)amino)methyl)-benzamido)methyl)thiophen-2-yl)phenyl)-2-phenylacetate], the IC50 [1] was 0.3 to 3 nM and the IC50 [2] was < 0.3 nM.

O=C(NCc1cnc(-c2cccc([C@](O)(C(=O)OCC3CCN(Cc4ccccc4)CC3)c3ccccc3)c2)s1)c1ccc(CNC[C@H](O)c2ccc(O)c3[nH]c(=O)ccc23)cc1 [Compound 5B, (1-Benzylpiperidin-4-yl)methyl (S)-2-hydroxy-2-(3-(5-((4-((((R)-2-hydroxy-2-(8-hydroxy-2-oxo-1,2-dihydroquinolin-5-yl)ethyl)amino)methyl)-benzamido)methyl)thiazol-2-yl)phenyl)-2-phenylacetate] was tested, and the IC50 [1] was 0.3 to 3 nM and the IC50 [2] was < 0.3 nM.

With O=C(c1ccc(CNC[C@H](O)c2ccc(O)c3[nH]c(=O)ccc23)cc1)N1CCc2sc(-c3cccc([C@](O)(C(=O)OCC4CCN(Cc5ccccc5)CC4)c4ccccc4)c3)cc2C1 [Compound 5C, (1-Benzylpiperidin-4-yl)methyl (S)-2-hydroxy-2-(3-(5-(4-((((R)-2-hydroxy-2-(8-hydroxy-2-oxo-1,2-dihydroquinolin-5-yl)ethyl)amino)methyl)benzoyl)-4,5,6,7-tetrahydrothieno[3,2-c]pyridin-2-yl)phenyl)-2-phenylacetate] the IC50 [1] was 0.3 to 3 nM and the IC50 [2] was < 0.3 nM.
